These results are taken from patent US9555038B2, “Heterocycle-substituted tetracyclic compounds and methods of use thereof for the treatment of viral diseases” (Merck Sharp & Dohme Corp., priority 2013, dated 2017).

Molecules are shown by their SMILES. Like-named read-outs stand apart in the source and are kept apart here.

For one assay, the system named is HCV replicon 1B. Description: Cell-based HCV Replicon Assay B, replicon 1B. As for the experimental part: In an alternate assay (“Replicon Assay B”), 1000 cells were seeded per well in a 384-well collagen coated black plate from Greiner bio-one (Cat #781946) in 5% FBS. Inhibitors of this invention were added at 24 h post-seeding, and the plates were incubated for 3 days. Cells were subsequently lysed with Qiagen lysis buffer (Cat #1062731) to extract the RNA. HCV replicon RNA level was measured by real-time PCR using the RNA-to-CT kit from Applied Biosystem (Cat #4392656) and genotype-specific primers and probes. The amplicon was located within NS5B. The sequence of the PCR primers are as follows: 5B.2F, ATGGACAGGCGCCCTGA (SEQ. ID NO. 1); 5B.2R, […] (SEQ. ID NO. 2); the probe sequence was FAM-labeled CACGCCATGCGCTGCGG (SEQ. ID NO. 3). To detect genotype 1A the primer 1A F, TGCGGAACCGGTGAGTACA and 1A R, […] were used; the probe sequence was FAM-[…].
The real-time RT-PCR reactions were run on ABI PRISM 7900HT or Viia7 Sequence Detection System using the following program: 48° C. for 30 minutes, 95° C. for 10 minutes, 40 cycles of 95° C. for 15 sec, 60° C. for 1 minutes. The 50% effective concentration (EC50) was the drug concentration necessary to achieve an increase in the cycle threshold (CT) of 1 over the projected baseline CT.
Data was obtained for various compounds of the present invention using the methods described in the Example above, and is presented in the table immediately below. Data for replicons 1A, 1AY93H and 2B were obtained using Replicon Assay A and data for replicons 1AQ30D and 1B were obtained using Replicon Assay B.
(Replicon systems follow genome replication, usually without infectious particles.)

Another assay relates to HCV replicon 1A. Description: Cell-based HCV Replicon Assay A, replicon 1A. The method, boiled down: (§1)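 2000 cells/well; 10 serial dilutions, top concentration 333.3 nM to 1.667 nM; 0.5% DMSO, 5% FBS; 3 days; lysis; multiplex TaqMan RT-PCR (NS5B/Neo plus cyclophilin), RNA from linear Ct standard curves.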
The subject of another assay is HCV replicon 1AY93H. Description: Cell-based HCV Replicon Assay A, replicon 1AY93H. The following applies: read-out: 1A Y93H IC50, replicon 1AY93H. The method, boiled down:
as §1

The test system of a further assay is HCV replicon 2B. In words: Cell-based HCV Replicon Assay A, replicon 2B. The essentials:
as §1

[1] abbreviates: Hepatitis C virus, read-out: 2B IC50 (nM), replicon 2B.

Usually IC50 stands for the midpoint of a concentration-inhibition curve. Regarding `COC(=O)N[C@H](C(=O)N1CCC[C@H]1c1ncc(-c2cc(F)c3c(c2)OC(c2sc(C4CC4)nc2C2CC2)n2c-3cc3cc(-c4cnc([C@@H]5CCCN5C(=O)[C@@H](NC(=O)OC)C(C)C)[nH]4)ccc32)[nH]1)C(C)C` (single isomer, unassigned) [Compound 525], the concentration for half-maximal inhibition (IC50) with HCV replicon 1B (Hepatitis C virus) was 2.2 pM; in the assay on HCV replicon 1A (Hepatitis C virus), 4.5 pM.

For `COC(=O)N[C@H](C(=O)N1CCC[C@H]1c1ncc(-c2cc(F)c3c(c2)OC(c2sc(C(C)C)nc2C)n2c-3cc3cc(-c4cnc([C@@H]5CCCN5C(=O)[C@@H](NC(=O)OC)C(C)C)[nH]4)ccc32)[nH]1)C(C)C` (single isomer, unassigned) [Compound 516], the IC50 in the assay on HCV replicon 1B was 2.6 pM; in the assay with HCV replicon 1AY93H it was 3220 pM; in the assay on HCV replicon 1A it was 1.7 pM.

For the molecule `CCc1nnc(C2Oc3cc(-c4cnc([C@@H]5CCCN5C(=O)[C@@H](NC(=O)OC)C(C)C)[nH]4)cc(F)c3-c3cc4cc(-c5cnc([C@@H]6CCCN6C(=O)C(NC(=O)OC)C(C)C)[nH]5)ccc4n32)s1` (single isomer, unassigned) [Compound 114], the figures for the IC50 with HCV replicon 1B (Hepatitis C virus) and with HCV replicon 1A were 3 pM and 2.7 pM, respectively.

As for `COC(=O)NC(C(=O)N1[C@@H]2C[C@@H]2C[C@H]1c1ncc(-c2ccc3c(c2)cc2n3C(c3cnc(C4CC4)s3)Oc3cc(-c4cnc([C@@H]5CCCN5C(=O)[C@@H](NC(=O)OC)C(C)C)[nH]4)cc(F)c3-2)[nH]1)C1C[C@@H](C)O[C@H](C)C1` (single isomer, unassigned) [Compound 312], the IC50 is 3 pM in the assay on HCV replicon 1B, 2 pM with HCV replicon 1B (Hepatitis C virus), 2.5 pM in the assay with HCV replicon 1A and 3.1 pM in the assay with HCV replicon 1A (Hepatitis C virus).

Turning to `COC(=O)N[C@H](C(=O)N1CCC[C@H]1c1ncc(-c2cc(F)c3c(c2)OC(c2cc(C)ns2)n2c-3cc3cc(-c4cnc([C@@H]5CCCN5C(=O)[C@@H](NC(=O)OC)C(C)C)[nH]4)ccc32)[nH]1)C(C)C` (single isomer, unassigned) [Compound 502], the IC50 in the assay on HCV replicon 2B (setting [1]) amounted to 2.31 nM; with HCV replicon 1B (Hepatitis C virus), 2.5 pM; in the assay with HCV replicon 1A (Hepatitis C virus), 1.6 pM.

As for `COC(=O)N[C@H](C(=O)N1CCC[C@H]1c1ncc(-c2cc(F)c3c(c2)OC(c2sc(C4CC4)nc2C2CC2)n2c-3cc3cc(-c4cnc([C@@H]5CCCN5C(=O)[C@@H](NC(=O)OC)C(C)C)[nH]4)ccc32)[nH]1)C(C)C` (single isomer, unassigned) [Compound 526], the concentration for half-maximal inhibition (IC50) in the assay on HCV replicon 2B (setting [1]) was determined as 0.537 nM; in the assay on HCV replicon 1B, 1.1 pM; with HCV replicon 1A, 2.4 pM.

With `COC(=O)N[C@H](C(=O)N1CCC[C@H]1c1ncc(-c2cc(F)c3c(c2)OC(c2nc(C4CC4)sc2C)n2c-3cc3cc(-c4cnc([C@@H]5CCCN5C(=O)[C@@H](NC(=O)OC)C(C)C)[nH]4)ccc32)[nH]1)C(C)C` (mixture of isomers) [Compound 451], the IC50 stood at 2.7 pM with HCV replicon 1B (Hepatitis C virus) and 2.5 pM with HCV replicon 1A (Hepatitis C virus).

Turning to `COC(=O)N[C@H](C(=O)N1CCC[C@H]1c1ncc(-c2cc(F)c3c(c2)OC(c2cnc(C4(C)CCCC4)s2)n2c-3cc3cc(-c4cnc([C@@H]5C[C@H]6C[C@H]6N5C(=O)[C@@H](NC(=O)OC)C(C)C)[nH]4)ccc32)[nH]1)C(C)C` (single isomer, unassigned) [Compound 455], the results for the concentration for half-maximal inhibition (IC50) with HCV replicon 1B, in the assay on HCV replicon 1AY93H and with HCV replicon 1A were 3.4 pM, 981 pM and 1.7 pM, respectively.

Turning to `COC(=O)N[C@H](C(=O)N1CCC[C@H]1c1ncc(-c2cc(F)c3c(c2)OC(c2cnc(C4CC4)s2)n2c-3c(C)c3cc(-c4cnc([C@@H]5CCCN5C(=O)[C@@H](NC(=O)OC)C(C)C)[nH]4)ccc32)[nH]1)C(C)C` (single isomer, unassigned) [Compound 496], the IC50 amounted to 3.5 pM in the assay on HCV replicon 1B and 6.9 pM in the assay on HCV replicon 1A.

`COC(=O)NC(C(=O)N1CCC[C@H]1c1ncc(-c2ccc3c(c2)cc2n3C(c3nc4c(s3)CCC4)Oc3cc(-c4cnc([C@@H]5CCCN5C(=O)[C@@H](NC(=O)OC)C(C)C)[nH]4)cc(F)c3-2)[nH]1)C1CCOC(C)(C)C1` (single isomer, unassigned) [Compound 536]: the 50% inhibitory concentration (IC50) in the assay with HCV replicon 2B (replicon 2B, read-out: 2B IC50) was found to be 0.029 nM; with HCV replicon 1B, 2.7 pM; in the assay with HCV replicon 1A, 2.3 pM.
